SMILES strings stand for the structures.

Usually Kd stands for the constant that tells how readily two partners part at equilibrium. Read a low Kd as higher affinity.

In this experiment the target is T1, Pantothenate synthetase (Mycobacterium tuberculosis (strain ATCC 25618 / H37Rv), UniProt P9WIL5).
T1 sequence (P9WIL5 whole entry): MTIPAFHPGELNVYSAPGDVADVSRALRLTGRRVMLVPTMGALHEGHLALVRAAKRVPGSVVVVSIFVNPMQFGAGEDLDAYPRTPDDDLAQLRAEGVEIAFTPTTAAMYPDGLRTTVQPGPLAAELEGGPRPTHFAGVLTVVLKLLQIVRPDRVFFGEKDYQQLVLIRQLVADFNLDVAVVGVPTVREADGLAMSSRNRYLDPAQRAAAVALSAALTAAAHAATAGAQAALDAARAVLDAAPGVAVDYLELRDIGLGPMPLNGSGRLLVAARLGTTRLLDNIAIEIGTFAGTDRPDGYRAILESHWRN
Briefly: Binding Assay. To be noted: pH 7.6; 25 °C. Here is the method:
The dissociation constants and enthalpies was determined by isothermal titration calorimety.

Turning to `Nc1ncnc2c1ncn2[C@@H]1O[C@H](CSSCC(O)CO)[C@@H](O)[C@H]1O` (stereo partly specified) [5'-Deoxy-5'-thiodenosine scaffold, 14c], the Kd is 570 µM.

These data come from BindingDB's records for doi:10.1002/cbic.200900537 (University of Cambridge, 2009).
